# Assay results taken from US20260098045A1, “CRYSTALLINE FORM OF (3S,7S,10R,13R)-13-BENZYL-20-FLUORO-7-ISOBUTYL-N-(2-(3-METHOXY-1,2,4-OXADIAZOL-5-YL)ETHYL)-6,9-DIMETHYL-1,5,8,11-TETRAOXO-10-(2,2,2-TRIFLUOROETHYL)-1,2,3,4,5,6,7,8,9,10,11,12,13,14-TETRADECAHYDRO-[1]OXA[4,7,10,14]TETRAAZACYCLOHEPTADECINO[16,17-F]QUINOLINE-3-CARBOXAMIDE” (Idorsia Pharmaceuticals Ltd, priority 2022, published 2026).
# Experiment: Gravimetric vapour sorption (GVS) analysis
# Assay type: physicochemical
# Settings: sample of Example 6
# Procedure: Measurements are performed on a multi-sample instrument SPS-100n (Projekt Messtechnik, Ulm, Germany), which is operated in stepping mode at 25° C. A sample of approximately 20 mg is equilibrated at 40% RH before starting a pre-defined humidity program of 40-0-95-0-95-40% RH with steps of 5% ARH and a maximum equilibration time of 24 h per step. The hygroscopic classification is done according to the European Pharmacopeia Technical Guide (1999, page 86), e.g., non-hygroscopic: increase in mass less than 0.2% mass/mass; slightly hygroscopic: increase in mass is less than 2% and equal to or greater than 0.2% mass/mass; hygroscopic: increase in mass is less than 15% and equal to or greater than 2% mass/mass. The mass change between 40% relative humidity and 80% relative humidity in the first adsorption scan is evaluated for this classification.
structure (smiles),measurement,setting,value
"COc1noc(CCNC(=O)[C@@H]2CC(=O)N(C)[C@@H](CC(C)C)C(=O)N(C)[C@H](CC(F)(F)F)C(=O)N[C@H](Cc3ccccc3)COc3ccc4ncc(F)cc4c3C(=O)N2)n1 [form 1 of the COMPOUND, (3S,7S,10R,13R)-13-benzyl-20-fluoro-7-isobutyl-N-(2-(3-methoxy-1,2,4-oxadiazol-5-yl)ethyl)-6,9-dimethyl-1,5,8,11-tetraoxo-10-(2,2,2-trifluoroethyl)-1,2,3,4,5,6,7,8,9,10,11,12,13,14-tetradecahydro-[1]oxa[4,7,10,14]tetraazacycloheptadecino[16,17-f]quinoline-3-carboxamide]",GVS change of the water content,"between 0% and 95% RH, 25° C., almost linear, small hysteresis between ca. 50% and 85% RH",2%
same,GVS maximum water content,corresponds to approximately 1 equivalent of water,2%
